Among the test systems are Hs-578T; RXF 631; DMS-114; MCF7; DLD-1; XF498; DU-145; KM-20L2; NCI/ADR-RES.
Holding throughout (experiment): NCI-60 cell line screen, 48 h

Molecules are shown by their SMILES.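 Compound exposure: 48 hours, 5 concentrations, 96-well plates. GI50 marks 50% less growth.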 The source made the active and inactive calls. No stated cut-off is given here; in the data, active = GI50 up to about 1.1 µM and inactive = higher.

With `COc1ccc2nc(-c3ccc(O)cc3)cc(O)c2c1`, the GI50 is 4.3 µM (inactive) in the assay on Hs-578T; 3.63 µM (inactive) in the assay on RXF 631; 0.474 µM (active) with DMS-114; 3.52 µM (inactive) in the assay with MCF7; 1.35 µM (inactive) with DLD-1; 0.556 µM (active) in the assay on XF498. In addition, the figures for the GI50 in the assay on DU-145 and with KM-20L2 were 15.7 µM (inactive) and 1.7 µM (inactive), respectively.

`COc1cc(OC)c2ssc3c(OC)cc(OC)c4ssc1c2-c43`: the GI50 in the assay on DMS-114, in the assay with DLD-1, with XF498 and in the assay on KM-20L2 was > 100 µM (inactive) throughout.

With `CS/C(=N\c1ccc([N+](=O)[O-])cc1C#N)NC(=O)c1ccccc1`, the GI50 in the assay on RXF 631, in the assay with DMS-114, in the assay with DLD-1, with XF498 and in the assay on KM-20L2 was > 100 µM (inactive) in each case.

Regarding `CCCCCCCCCCCCCCCCNc1cccc2ccccc12`, the GI50 in the assay on DMS-114, in the assay on DLD-1 and in the assay with KM-20L2 was > 100 µM (inactive) throughout.

In the case of `O=C1OC(c2ccccc2)=N/C1=C/NC(Cc1ccc(O)cc1)C(=O)O` (centres undefined), the GI50 in the assay on DMS-114, with DLD-1, in the assay with XF498 and with KM-20L2 was > 100 µM (inactive) in each case.

As for `Cc1nn(C(=O)CC(=O)Nc2ccccc2Cl)c(C)c1/N=N/c1ccccc1Cl`, the GI50 in the assay on RXF 631, with DMS-114, in the assay on DLD-1, in the assay with XF498 and in the assay on KM-20L2 was > 100 µM (inactive) in each case.

In the case of `NNc1cnn(-c2ccccc2)c(=O)c1Cl`, the GI50 with DMS-114, in the assay with DLD-1 and with KM-20L2 was > 100 µM (inactive) each time.

On to `C/C(CCn1[nH]c(=O)ccc1=O)=N\OCCCc1ccccc1`, for which the GI50 with DMS-114, in the assay on DLD-1, in the assay on XF498 and in the assay with KM-20L2 was > 100 µM (inactive) each time.

On to `O=C(Nc1ccc(Cl)cc1Cl)C1C(=O)N(c2ccc(Cl)cc2Cl)C(=O)/C1=N\Nc1ccc([N+](=O)[O-])cc1[N+](=O)[O-]` (centres undefined), for which the GI50 in the assay on RXF 631 was 62.2 µM (inactive); in the assay with DMS-114, 13.2 µM (inactive); in the assay with DLD-1, 46.8 µM (inactive); with KM-20L2, 26.4 µM (inactive).

For `O=C(Nc1ccc(Cl)cc1Cl)C1C(=O)C(=O)N(c2ccc(Cl)cc2Cl)C1=O` (centres undefined), the GI50 with DMS-114, in the assay on DLD-1 and in the assay on KM-20L2 was > 100 µM (inactive) each time.

Consider `CCOC(=O)C1=C(C)C2C3C(=O)OC(=O)C3C1(C)C1C(=O)OC(=O)C21` (centres undefined), for which the GI50 in the assay with RXF 631, with DMS-114, in the assay with DLD-1 and in the assay on KM-20L2 was > 100 µM (inactive) throughout.

Turning to `NC(=O)N=C(NCc1ccccc1)NCc1ccccc1`, the GI50 with DLD-1 and with KM-20L2 was > 100 µM (inactive) throughout.

Take `CC(=O)N/C(=C\c1ccc(/C=C(\NC(C)=O)c2nc3cc(Cl)ccc3[nH]2)cc1)c1nc2ccccc2[nH]1`: the GI50 in the assay on RXF 631, in the assay with DMS-114, in the assay with DLD-1, in the assay with XF498 and in the assay on KM-20L2 was > 100 µM (inactive) each time.

For `Clc1cccc(C2N3CCCCC3[C@@H]3c4[nH]c5ccccc5c4CCN23)c1` (some centres undefined), the GI50 is 20.6 µM (inactive) in the assay on DMS-114, 30.3 µM (inactive) with DLD-1, 20.9 µM (inactive) in the assay with XF498 and 56.8 µM (inactive) in the assay with KM-20L2.

On to `Fc1ccc(F)c(C2SCc3nc4ccccc4n32)c1` (centres undefined), for which the GI50 in the assay with DMS-114 was 23.5 µM (inactive); in the assay with DLD-1, > 100 µM (inactive); with KM-20L2 it was > 100 µM (inactive).

Regarding `CSc1ccc(/C=C2\CN(C)C/C(=C\c3ccc(SC)cc3)C2=O)cc1`, the GI50 is 24.9 µM (inactive) with DMS-114, 11.5 µM (inactive) in the assay with DLD-1, 18.9 µM (inactive) with XF498 and 32.1 µM (inactive) in the assay on KM-20L2.

As to `O=C(/C=N/O)Nc1ccc(Cl)c(I)c1`, the GI50 is 16.6 µM (inactive) with DMS-114, 27.1 µM (inactive) in the assay with DLD-1, 21.6 µM (inactive) with XF498 and 33 µM (inactive) in the assay with KM-20L2.

Take `COC(=O)C1=CC(O)CCC1c1ccc(OC)cc1` (centres undefined): the GI50 with DMS-114, in the assay with DLD-1 and in the assay with KM-20L2 was > 100 µM (inactive) throughout.

For the compound `Cc1cc(C)nc(NS(=O)(=O)c2ccc(NC(=O)c3cccc4c(Nc5ccc(S(=O)(=O)Nc6nc(C)cc(C)n6)cc5)c5ccccc5nc34)cc2)n1`, the GI50 is 18.1 µM (inactive) in the assay with RXF 631, 19 µM (inactive) in the assay on DLD-1, 33.6 µM (inactive) with XF498 and 20.1 µM (inactive) in the assay with KM-20L2.

Regarding `c1ccc2c(c1)oc1ccc3nsnc3c12`, the GI50 in the assay with RXF 631 is 46.9 µM (inactive); in the assay with DMS-114, > 100 µM (inactive); in the assay with DLD-1, > 100 µM (inactive); with KM-20L2, > 100 µM (inactive).

With `C1=C(c2ccccc2)C(OC2Oc3ccccc3C=C2c2ccccc2)Oc2ccccc21` (centres undefined), the GI50 in the assay on RXF 631, in the assay with DMS-114, in the assay with DLD-1, with XF498 and in the assay with KM-20L2 was > 100 µM (inactive) in each case.

`OC1=CN=C(C2CC2)Oc2ccccc21`: the GI50 was 41 µM (inactive) in the assay on DMS-114, > 100 µM (inactive) in the assay on DLD-1 and > 100 µM (inactive) in the assay with KM-20L2.

For the compound `CN(CCN(C)C(=O)CCn1ccc(=O)[nH]c1=O)C(=O)CCn1ccc(=O)[nH]c1=O`, the GI50 in the assay with DMS-114, with XF498 and in the assay with KM-20L2 was > 100 µM (inactive) in each case.

As to `Cc1ccc(NC(=O)CCc2nnc(S)[nH]2)cc1`, the GI50 in the assay on RXF 631 was > 100 µM (inactive); with DMS-114, 39.5 µM (inactive); with DLD-1 it was > 100 µM (inactive); in the assay with XF498, > 100 µM (inactive); in the assay on KM-20L2, 54.8 µM (inactive).

Consider `Nc1cn(C2OC(CC(c3ccccc3)(c3ccccc3)c3ccccc3)C(O)C2O)c(=O)[nH]c1=O` (centres undefined), for which the GI50 in the assay on RXF 631 is 43.9 µM (inactive); in the assay with DMS-114 it was 15.5 µM (inactive); in the assay with DLD-1, 24.5 µM (inactive); in the assay on XF498, 28.6 µM (inactive); with KM-20L2 it was 22 µM (inactive).

Take `CC(=O)C1=C(O)C(N)C2Cc3c(c(O)c4c(O)c(C)ccc4c3C)C(=O)C2(O)C1=O` (centres undefined): the GI50 in the assay with RXF 631 was 2.2 µM (inactive); in the assay on DMS-114, 2.38 µM (inactive); with DLD-1, 2 µM (inactive); in the assay with XF498, 1.84 µM (inactive); in the assay with KM-20L2 it was 2.85 µM (inactive).

For `CN1C(=O)c2ccc3ccccc3c2C1=O`, the GI50 in the assay with Hs-578T was 73.1 µM (inactive); in the assay with NCI/ADR-RES, > 100 µM (inactive); with MCF7 it was > 100 µM (inactive); in the assay on DU-145 it was > 100 µM (inactive).

As for `CN(C)CC(C)(C)C(/C=C/c1ccccc1)=N\Nc1ccccc1`, the GI50 was 4.25 µM (inactive) in the assay with DMS-114, 0.199 µM (active) in the assay on DLD-1 and 0.0217 µM (active) with KM-20L2.

On to `Cc1cc(O)c(C=O)c(C)c1CCC1(C)C=Cc2cc(O)ccc2O1` (centres undefined), for which the GI50 with DMS-114 is 18.4 µM (inactive); in the assay with DLD-1, 19.6 µM (inactive); with XF498 it was 19.1 µM (inactive); in the assay on KM-20L2 it was 25.1 µM (inactive).

For the compound `N#C/C(=C1\SC(/N=N/c2ccccc2)C(=O)N1c1ccccc1)c1nc2ccccc2[nH]1` (centres undefined), the GI50 in the assay with DMS-114 was > 100 µM (inactive); in the assay on DLD-1, > 100 µM (inactive); in the assay on XF498, 17.7 µM (inactive); in the assay on KM-20L2, > 100 µM (inactive).

`Fc1ccc(/N=C2C=C/C(=N\c3ccc(F)cc3)c3ccccc3\2)cc1`: the GI50 with DLD-1, with XF498 and in the assay on KM-20L2 was > 100 µM (inactive) in each case.

Turning to `O=C(CC1(O)C(=O)Nc2ccc([N+](=O)[O-])cc21)c1ccc2ccccc2c1` (centres undefined), the GI50 with RXF 631, in the assay on DMS-114, with DLD-1 and with KM-20L2 was > 100 µM (inactive) throughout.

For the compound `O=C(O)C(Cc1ccccc1)N1C(=O)N/C(=C\c2ccc(F)cc2)C1=O` (centres undefined), the GI50 with DLD-1 was > 100 µM (inactive).

As to `O=S(=O)(O)c1ccc([Se][Se]c2ccc(S(=O)(=O)O)cc2)cc1`, the GI50 with DMS-114, with DLD-1, in the assay on XF498 and in the assay on KM-20L2 was > 100 µM (inactive) in each case.

Take `CC1OC(=O)N2CCC=CC12` (centres undefined): the GI50 with RXF 631, with DMS-114, in the assay with DLD-1, with XF498 and in the assay with KM-20L2 was > 100 µM (inactive) in each case.

As to `COC(=O)C1C2C=CC(C2)N1[C@@H](C)c1ccccc1` (some centres undefined), the GI50 in the assay with DLD-1 and in the assay with KM-20L2 was > 100 µM (inactive) in each case.

Regarding `C[C@@H]1C[C@@H]2OC(=O)[C@]3(C)[C@H]2[C@@H](OC3(C)O)[C@]2(C)C(=O)C=C[C@@H]12` (some centres undefined) [TENULIN], the GI50 with Hs-578T is 51.6 µM (inactive); in the assay with NCI/ADR-RES it was > 100 µM (inactive); in the assay with MCF7, 15.7 µM (inactive); in the assay with DU-145 it was 39.6 µM (inactive).
